Measured values from patent publication US20200093864A1, “NOVEL THERAPEUTIC STEM CELL COMPOSITIONS WITH AN ACTIVE OXIDATIVE PHOSPHORYLATION SITE AND THEIR PREPARATION” (priority 2018, published 2020).

How the values were obtained:
[1] = tested on: human adenocarcinoma cells; test: Growth of cultured human adenocarcinoma cells (Example 7); format: cell-based; conditions: for growth of cultured human adenocarcinoma cells (in words): Table 2 summary; for cell growth (10^5): cell numbers on day 4, 10^5 cells passaged day 0; for cell growth (10^5) / cell growth (% of control): TR2Co and TR 30 mg/dL, hMSC 10^5 added; for cell growth (% of control): day 4
Method: Human adenocarcinoma cells were cultured in RPMI medium with added fetal bovine serum and antibiotics, as reported by McCully K S et al in Research Communications in Chemical Pathology and Pharmacology, 1992; 77: 125-128. Equal numbers (10^5) of adenocarcinoma cells were trypsinized and passaged on day 0, and the cells were refed with media containing test compounds on days 1 and 3. Cell numbers were determined by trypsinization on day 4. Thioretinaco (TR2Co) and thioretinamide (TR) were synthesized, as previously described (McCully U.S. Pat. No. 4,618,685; McCully U.S. Pat. No. 4,925,931) and dissolved in absolute ethanol. Propylene glycol (PG) was added to the ethanol solutions of the test compounds, the ethanol was evaporated under reduced pressure at 37° C., and the resulting solutions in propylene glycol were added to the culture media. Human mesenchymal stem cells (hMSC) were incubated with cell culture medium containing TR2Co, NAD^+ and H2PO4^− in an atmosphere containing 5% ozone (O3), to produce activated stem cells and 10^5 hMSC were added to the culture medium containing adenocarcinoma cells. Equal numbers (10^5) of hMSC without exposure to TR2Co, O3, NAD^+ and H2PO4^− served as controls.

[2] = tested on: human pancreatic cancer cells growing in athymic mice; conditions: direct injection into subcutaneous tumors, cited from earlier work; for tumor growth inhibition (in words): 6 weeks, vs propylene glycol vehicle controls
[3] = tested on: human pancreatic carcinoma cells; conditions: added in the culture medium, after 4 days, compared with ethanol vehicle controls; cited from earlier work
[4] = tested on: cultured normal fibroblasts; conditions: thioretinaco in culture medium; cited from earlier work
[5] = tested on: person with metastatic prostate cancer; test: Example 1: intravenous activated stem cell therapy, patient case; format: in vivo, human; conditions: following luprolide therapy, over three months; 8.0 before
Method: Preparation of human mesenchymal stem cells containing an increased concentration of the active site of oxidative phosphorylation, TR2CoO3O2NAD^+H2PO4^−, is accomplished by incubation of stem cells in cell culture medium containing thioretinaco (TR2Co), 30 mg/dL, and […] (NAD^+H2PO4^−), 30 mg/dL, and exposed to an atmosphere containing ozone […], 1-10% by volume. Human mesenchymal stem cells are isolated by liposuction or by bone marrow aspiration, followed by collagenase digestion, filtration of cellular debris, centrifugation and adherence of the cellular pellet to the surface of the cell culture dish. Adherent mesenchymal stem cells are maintained in cell culture medium for 4-5 days at about 37 degrees centigrade at atmospheric pressure until 90% confluency is achieved, subsequently passaged by trypsinization four additional times, and washed in buffered saline for use. Aliquots of the mesenchymal stem cells are checked for cell viability, and absence of fungal, bacterial, endotoxin and mycoplasma contamination. Multiple doses of 10^8 cells are delivered in 100 ml of sterile saline intravenously to achieve a total dose of 2.5×10^10 cells over a period of two years. The final concentration of TR2CoO3O2NAD^+H2PO4^− within the activated stem cells is approximately 10-300 μg/g.
A person was evaluated for treatment of metastatic prostate cancer. […]

Molecule | growth of cultured human adenocarcinoma cells (in words) [1] | cell growth (10^5) [1] | cell growth (% of control) [1] | tumor growth inhibition (in words) [2] | cellular growth (in words) [3] | further results
CC1=C(/C=C/C(C)=C/C=C/C(C)=C/C(=O)NC2CCSC2=O)C(C)(C)CCC1 (stereo not drawn) [TR, N-homocysteine thiolactonyl retinamide] | significantly inhibit | 1.4 ± 0.50 10^5 | 19 % of control | no growth inhibition | inhibition of cellular growth | 
C/C1=C2/[N-][C@H]([C@H](CC(N)=O)[C@@]2(C)CCC(=O)NC[C@@H](C)OP(=O)([O-])O[C@H]2[C@@H](O)[C@@H](n3cnc4cc(C)c(C)cc43)O[C@@H]2CO)[C@]2(C)N=C(/C(C)=C3N=C(/C=C4N=C1[C@@H](CCC(N)=O)C\4(C)C)[C@@H](CCC(N)=O)[C@]\3(C)CC(N)=O)[C@@H](CCC(N)=O)[C@]2(C)CC(N)=O.[CH2-][C@H]1O[C@@H](n2cnc3c(N)ncnc32)[C@H](O)[C@@H]1O.[Co] [adenosyl cobalamin] |  |  |  | no growth inhibition |  | 
N[C@H]1CCSC1=O.[O-][Cl+3]([O-])([O-])O [homocysteine thiolactone perchlorate] |  |  |  | no growth inhibition |  | 
N-homocysteine thiolactonyl retinamido cobalamin [TR2Co] | significantly inhibit | 2.5 ± 0.82 10^5 | 33 % of control |  | inhibition of cellular growth | reduction of tumor weight ([2]; after 6 weeks of growth, compared with propylene glycol vehicle controls): 50%; growth of cultured normal fibroblasts (in words) [4]: Only the highest concentrations of thioretinaco decrease growth
homocysteine thiolactonyl cobalamin |  |  |  | no growth inhibition |  | 
luprolide |  |  |  |  |  | PSA value [5]: 0.1 ng/mL
